The target of the assay is T1, A®1-42 peptide (Homo sapiens, UniProt P05067).
T1 construct: A®1-42 lyophilized powder (Bachem) was reconstituted in hexafluoroisopropanol (HFIP) to 1 mM; purchased Bachem
T1 sequence (P05067 672-713): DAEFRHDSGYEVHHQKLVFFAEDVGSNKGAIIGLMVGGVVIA
The assay can be described thus: Thioflavin T spectrofluorescence assay (ThT-assay), inhibition of A®1-42 aggregation. The format is biochemical. Conditions: 330 µM small molecule, 33 µM A®1-42 (molar ratio 10:1), 10 µM ThT, 12.8% DMSO in PBS, 24 hrs at 37° C.; mean +/- SD of two independent experiments. The procedure: The capacity of the compounds of the invention to inhibit the aggregation of A®1-42 peptide was determined by using the thioflavin T spectrofluorescence assay (ThT-assay) as described below.
A®1-42 lyophilized powder (Bachem) was reconstituted in hexafluoroisopropanol (HFIP) to 1 mM. The peptide solution was sonicated for 15 min at room temperature, agitated overnight, and aliquots were placed into non-siliconized microcentrifuge tubes. The HFIP was then evaporated under a stream of argon. The resulting peptide film was dried under vacuum for 10 min, tightly sealed and stored at −80° C. until used.
An A®1-42 peptide film was dissolved in DMSO to reach 400 ? M. An assay solution in PBS was prepared in non-siliconized incubation tubes to reach the following concentrations: 330 ? M small molecule, 33 ? M A®1-42, 10 ? M thioflavin T (ThT), and 12.8% DMSO. Therefore, the final molar ratio of small molecule to A®1-42 was 10:1. A positive control without a small molecule was prepared to measure maximum RFU. A negative control without A®1-42 was prepared for each small molecule. The 3-amino-pyrazole trimer (Rzepecki et. al. Synthesis 2003, 1815) was tested as a reference compound in all assays to ascertain reproducibility between independent experiments. The solutions were then incubated for 24 hrs at 37° C., and the spectrofluorescence (relative fluorescence units; RFU) read in six replicates in black 384-well assay plates (Perkin-Elmer) on a Perkin-Elmer FluoroCount spectrofluorometer. Inhibition of aggregation is expressed as mean % inhibition±1 standard deviation (SD) according to the following equation: […]
In the case of `CN1CCC(CNc2cncc(Nc3ccc(C(F)(F)F)nc3)c2)CC1` [Example 18], the inhibition at 330 µM turned out to be 29.5 ± 0.1%.
As for `FC(F)(F)c1ccc(Nc2cncc(N3CCOCC3)c2)cn1` [Example 3], the figure is 36.9 ± 17.2%; as for `FC1(CNc2cncc(Nc3ccc(C(F)(F)F)nc3)c2)CCNCC1` [Example 14], 86.2 ± 4.7%.
The value for `FC(F)(F)c1ccc(Nc2cncc(NCC3CCNCC3)c2)cn1` [Example 1] was 38 ± 0.6%; that for `c1ncc(NCC2CCNCC2)cc1NCC1CCNCC1` [Example 8] was 69.5 ± 1.4%.
Take `c1ncc(N2CCNCC2)cc1N1CCNCC1` [Example 5]: the inhibition at 330 µM came out at 60.1 ± 7.8%.
As for `FC(F)(F)c1ccc(Nc2cncc(NCC3CCOCC3)c2)cn1` [Example 19], the figure is 40.2 ± 6.3%; as for `c1cc2ccc(Nc3cncc(NCC4CCNCC4)c3)nc2[nH]1` [Example 11], 62.7 ± 2.1%; as for `c1cc2c(C3CCNCC3)c[nH]c2cc1Nc1cncc(N2CCOCC2)c1` [Example 4], 53.3 ± 7.6%.
Consider `FC(F)(F)c1ccc(Nc2cncc(NCC3CCNCC3)c2)cc1` [Example 10], for which the inhibition at 330 µM was determined as 73.9 ± 4.7%.
As for `FC1(CNc2cncc(Nc3ccc(C(F)(F)F)cc3)c2)CCNCC1` [Example 16], the figure is 62.9 ± 8.2%; as for `FC(F)(F)c1ccc(Nc2cncc(N3CCNCC3)c2)cn1` [Example 7], 28.3 ± 3.2%.
Consider `Fc1cc(F)cc(Nc2cncc(N3CCNCC3)c2)c1` [Example 6], for which the inhibition at 330 µM was 62.5 ± 7.4%.
For `c1ncc(Nc2ccc3c(C4CCNCC4)c[nH]c3c2)cc1NCC1CCNCC1` [Example 12], the inhibition at 330 µM amounted to 95.4 ± 0.8%.
As for `FC(F)(F)c1ccc(Nc2cncc(NCC3CCOCC3)c2)cc1` [Example 20], the inhibition at 330 µM stood at 51.7 ± 0.3%.
The value for `FC1(CNc2cncc(Nc3ccc4c5c([nH]c4n3)CCCC5)c2)CCNCC1` [Example 15] was 95.7 ± 0.4%.
As for `Fc1cc(F)cc(Nc2cncc(NCC3CCNCC3)c2)c1` [Example 9], the figure is 55 ± 7.4%.
As for `Cn1c2c(c3ccc(Nc4cncc(NCC5(F)CCNCC5)c4)nc31)CCCC2` [Example 17], the figure is 96.5 ± 1.4%; as for `c1ncc(N2CCOCC2)cc1N1CCOCC1` [Example 2], 15.7 ± 6.1%; as for `c1ncc(Nc2ccc3c4c([nH]c3n2)CCCC4)cc1NCC1CCNCC1` [Example 13], 100 ± 4.4%.

As usually defined, the inhibition is the share of the control response that was lost under treatment.
